Assay results published in patent publication US12637411B2, “Structurally modified opioids for prevention and treatment of diseases and conditions” (University of Padova, priority 2019, dated 2026).

Experiments:
[1] = compared to dextromethadone and deuterated dextromethadone (D9, D10, D16), PCT/US2018/016159; cited from earlier work
Forced Swim Test (FST) = format: in vivo; conditions: drug treated vs. vehicle treated animals; d-methadone 10, 20, 40 mg/kg
[2] = Chronic Unpredictable Stress (CUS) protocol with SPT, FUST, NSFT; conditions: single dose
Description: The present inventors also performed behavioral analysis of the effect of both d-methadone and ketamine on rats exposed to a Chronic Unpredictable Stress (CUS) protocol.

[3] = Novelty Suppressed Feeding Test (NSFT); conditions: 72 hr after administration, vs. vehicle
NMDAR = conditions: cited from earlier work; for trapping: Zanos et al. 2018
[4] = Female Urine Sniffing Test (FUST); conditions: 24 hr after administration, vs. vehicle
ARPE-19 cells [5] = assay: ROS production in ARPE-19 cells; conditions: 1 mM L-Glu + 30 μM antagonist; statistical significance not reached
Experimental: This study was conducted also on the retinal cell line ARPE-19 in order to verify how NMDAR activation and blockade influence ROS production.

ARPE-19 cells [6] = assay: Relative gene expression (NMDAR1, p65, TNF-α, IL-6) in ARPE-19 cells; format: cell-based; conditions: pretreatment before 1 mM L-glutamate
Experimental: Once the effect of NMDAR antagonists on nuclear translocation of p65 was verified, in order to confirm their anti-inflammatory effect, the present inventors investigated the changes of gene expression levels of the pro-inflammatory cytokines IL-6 (interleukin-6) and TNF-α, the transcription factor p65 and the NMDA receptor.
The first gene for which the level of gene expression was assessed is the 1A subunit of NMDAR receptor dimer (known as NMDAR1).

ARPE-19 cells [7] = assay: ARPE-19 cell viability after L-glutamate; conditions: pretreatment before 1 mM L-glutamate; dextromethadone 30 microMolar
[8] = Phase 1 Multiple Ascending Dose (MAD) study; format: in vivo, healthy opioid-naïve volunteers
Experimental: The objective of the Multiple Ascending Dose (MAD) study was to establish PK, PD, and safety of once daily, 10-day administration. Administration involved cohorts of 25, 50, 75 mg and N=24.

[9] = Phase 1 Single Ascending Dose (SAD) study
Experimental: The Single Ascending Dose (SAD) study included a parallel group, double-blind, placebo-controlled design. The objectives of the study were to establish PK, PD, and safety of single dose administration. Administration involved cohorts of 5, 20, 60, 100, 150, 200 mg and N=42.

GluR1 and PSD95 = assay: mTORC1 signaling proteins and synaptic proteins in PFC and hippocampus; conditions: rat models of depression
Description: Levels of phospho proteins were normalized to total proteins and levels of synaptic proteins were normalized the GAPDH. Results are the mean±S.E.M., n=10-12/group.

[10] = system: brain derived neurotrophic factor (BDNF); conditions: 25 mg, 4 hours after administration, vs pre-treatment

Structure (SMILES) | behavioral effects of CUS (SPT, FUST, NSFT) [2] | effect in the Novelty Suppressed Feeding Test [3] | trapping (NMDAR) | effect in the Female Urine Sniffing Test [4] | ROS production (ARPE-19 cells [5]) | IL-6 gene expression (ARPE-19 cells [6]) | NMDAR1 gene expression (ARPE-19 cells [6]) | TNF-α gene expression (ARPE-19 cells [6]) | effect on L-glutamate-induced cell viability decrease (ARPE-19 cells [7]) | also measured
COc1ccc2c(c1)[C@]13CCCC[C@@H]1[C@H](C2)N(C)CC3 [Dextromethorphan, dextromethorphan] | – | – | – | – | – | – | – | – | – | half-life [1]: significantly shorter half-life
CNC1(c2ccccc2Cl)CCCCC1=O (stereo not shown) [Ketamine, ketamine] | prevented the behavioral effects of CUS | significant improvements | 86% | significant improvements | – | – | – | – | – | effect in the Forced Swim Test (immobility, climbing, swimming counts) (Forced Swim Test (FST)): significant improvements
C[C@]12N[C@H](Cc3ccccc31)c1ccccc12 [MK-801] | – | – | 100% | – | tendency to decrease | tendency to decrease | only slightly evident | restored to normal levels | protective effect on cell viability | –
CC12CC3CC(C)(C1)CC(N)(C3)C2 [Memantine, memantine] | – | – | – | – | – | – | – | – | – | off rate (NMDAR; NMDA receptor block): ~5 s; on rate (NMDAR; NMDA receptor block): 1 s
c1ccc(C2(N3CCCCC3)CCCCC2)cc1 [PCP] | – | – | 98% | – | – | – | – | – | – | –
CCC(=O)C(C[C@H](C)N(C)C)(c1ccccc1)c1ccccc1 [dextromethadone] | prevented the behavioral effects of CUS | significant improvements | – | significant improvements | tendency to decrease | tendency to decrease | up to 9 times when compared to the expression level of vehicle-treated cells | restored to normal levels | protective effect on cell viability | dissociative or psychotomimetic adverse events ([8]; at the tested doses (SAD and MAD)): did not cause dissociative or psychotomimetic adverse events; tolerability ([8]; daily doses up to 75 mg for 10 days (single doses up to 150 mg)): well tolerated; PK: Cmax, AUCtau Day 1; Cmax, AUCtau, Css Day 10 ([8]; once daily 25, 50, 75 mg, 10 days): linear PK with dose proportionality; p65 gene expression (ARPE-19 cells [6]): decrease in gene expression of p65; Maximum tolerated dose (MTD) ([9]; single dose): 150 mg; opioid effects ([9]; up to 150 mg): no clinically significant opioid effects; levels of GluR1 and PSD95 (GluR1 and PSD95): increase; subjects with an increase in BDNF levels post treatment [10]: 6 of 6
